“Also recorded” adds a separate entry of the source.

Experiment [1] deals with T1, human MAGL (Homo sapiens, UniProt Q99685).
T1 construct: expressed in transfected cells; host or cells: HEK293T (transient transfection; membrane fraction)
T1 sequence (Q99685 1-303): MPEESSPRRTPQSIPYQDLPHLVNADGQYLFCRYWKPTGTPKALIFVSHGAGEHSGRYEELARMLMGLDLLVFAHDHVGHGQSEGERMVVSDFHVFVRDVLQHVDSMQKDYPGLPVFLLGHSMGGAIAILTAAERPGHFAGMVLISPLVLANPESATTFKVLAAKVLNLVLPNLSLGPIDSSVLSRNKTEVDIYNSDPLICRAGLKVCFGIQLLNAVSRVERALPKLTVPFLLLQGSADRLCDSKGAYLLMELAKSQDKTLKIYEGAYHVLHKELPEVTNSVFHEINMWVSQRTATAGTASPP
The experiment in a line: MAGL activity assay (AA-HNA fluorogenic substrate). It counts as biochemical. The method, boiled down:
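Activity was taken as the fluorescence slope over 5–15 min after adding AA-HNA (10 µl of a 200 µM solution), with readings every minute for 30 min. Before substrate addition, inhibitors were incubated for 30 min with MAGL-overexpressing membranes from transfected HEK293T cells in HEPES buffer (40 mM, pH 7.5, 0.1 mg/ml BSA).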

Experiment [2] has as its system A431 cells. The experiment in a line: Cell viability assay (CCK-8), A431. It counts as cell-based. As to conditions: A431, 48 h, CCK-8. As to the method:
(§1) Various cancer cell lines, including human colon cancer cell line HT-29, ovarian cell line OVCAR-3, melanoma cell line B16-F10, skin squamous cancer cells A431, cervical cancer cells Hela, lung cancer cell lines A549, H1975, and HCC827, were purchased from American type culture collection (ATCC). A431, H1975, B16-F10, OVCAR-3, HT-29, HCC827, Hela, and A549 cells were cultured in Dulbecco’s modified Eagle medium (DMEM, Gibco) containing 10% fetal bovine serum (FBS, Gibco), penicillin (100 U/ml) and streptomycin (100 μg/ml). All cell lines were maintained in a humidified 37°C incubator with 5% CO2. The medium was refreshed every 2–3 days and the cells were passaged at ∼90% confluence by adding the fresh medium, followed by vigorously pipetting the resuspend cells. Of note, the cells were only washed with PBS when a significant number of dead cells were observed.
(§2) The antiproliferation activity of the compounds against the cancer cell lines was evaluated using Cell Counting Kit-8. Briefly, cells (∼1,000 per well) in 100 µl of culture medium were plated in a 96-well plate for 24 h and 100 µl of medium with different concentrations of the tested compounds was added to each well for 48 h. Then 10 μl of CCK8 solution (#CK04, Dojindo) was added and incubated at 37°C for 2 h. The absorbance of each well was measured with a plate reader (BioTeck) at 450 nm. Cell viability was calculated as follows: cell viability (%) = [(As-Ab)/(Ac-Ab)] × 100. Among them, As represents the absorbance of experimental wells, Ab represents the absorbance of blank wells and Ac represents the absorbance of control wells. The experiments were repeated at least three times and IC50 values were determined by plotting a log(inhibitor) v. s normalized response (Variable slope) dose–response curve generated using GraphPad Prism software.

The test system of experiment [3] is H1975 cells. Description: Cell viability assay (CCK-8), H1975. The format is cell-based. The settings on record: H1975, 48 h. As to the method:
as §1, §2

The subject of experiment [4] is B16-F10 cells. The experiment in a line: Cell viability assay (CCK-8), B16-F10. The format is cell-based. The settings on record: B16-F10, 48 h, CCK-8. As to the method: as §1, §2
In experiment [5] the test system is OVCAR-3 cells. The experiment in a line: Cell viability assay (CCK-8), OVCAR-3. The format is cell-based. The settings on record: OVCAR-3, 48 h. As to the method: as §1, §2
Experiment [6] has as its system HT-29 cells. Description: Cell viability assay (CCK-8), HT-29. It counts as cell-based, human. As to conditions: HT-29, 48 h. As to the method: as §1, §2
Experiment [7] relates to HCC827 cells. The experiment in a line: Cell viability assay (CCK-8), HCC827. The format is cell-based. As to conditions: HCC827, 48 h. As to the method: as §1, §2
In experiment [8] the test system is Hela cells. The experiment in a line: Cell viability assay (CCK-8), Hela. The format is cell-based. As to conditions: 48 h. As to the method:
as §1, §2

Experiment [9] relates to A549 cells. The experiment in a line: Cell viability assay (CCK-8), A549. The format is cell-based. The settings on record: A549, 48 h. As to the method: as §1, §2
Experiment [10] relates to endogenous MAGL in cancer cells. The experiment in a line: Competitive ABPP in cancer cell lysates: MAGL band. It counts as biochemical. The settings on record: 10 μM preincubation, cancer cell lysates. As to the method:
(§3) To identify the potential off-targets of the compounds with anti-cancer activities, ABPP was applied. Cancer cells were seeded in the dishes and were washed with PBS, scraped, centrifugated (3,000 × g, 3 min) and pellets snap frozen in liquid in nitrogen. For ABPP experiments, the cell pellets were lysed by probe sonication (3 × 10 bursts) in PBS, followed by the determination of protein concentration of the intact cell lysate by Qubit assay. […] The reactions were then quenched by 10 µl sample buffer (×4). The obtained samples were directly loaded and resolved on SDS-PAGE gel (10% acrylamide). The gel-based ABPP results were then scanned and analyzed using a ChemiDoc MP system (Cy3 settings, BioRad).

Experiment [11] deals with T2, human ABHD6 (Homo sapiens, UniProt Q9BV23).
T2 construct: expressed in transfected cells; host or cells: HEK293T (transient transfection; membrane fraction)
T2 sequence (Q9BV23 1-337): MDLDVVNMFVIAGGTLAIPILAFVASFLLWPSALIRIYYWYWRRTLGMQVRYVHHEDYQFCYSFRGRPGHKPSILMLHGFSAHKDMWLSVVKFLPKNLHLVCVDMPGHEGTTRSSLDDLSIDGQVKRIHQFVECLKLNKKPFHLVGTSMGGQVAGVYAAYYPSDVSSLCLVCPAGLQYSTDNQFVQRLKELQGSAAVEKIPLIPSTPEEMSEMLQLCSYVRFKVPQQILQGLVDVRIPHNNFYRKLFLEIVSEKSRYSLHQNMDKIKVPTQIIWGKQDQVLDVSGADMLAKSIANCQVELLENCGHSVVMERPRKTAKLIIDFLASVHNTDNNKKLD
The experiment in a line: ABHD6 activity assay (AA-HNA fluorogenic substrate). The format is biochemical. The essentials:
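Membranes from HEK293T cells transiently overexpressing human ABHD6 (50 μg/ml final) were preincubated 30 min with inhibitor in 40 mM HEPES pH 7.5, 0.1 mg/ml BSA, 5% DMSO. Hydrolysis of 200 µM AA-HNA was followed by fluorescence for 30 min, activity taken as the 5–15 min slope.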

Experiment [12] has as its system ABHD6 in cancer cells. The experiment in a line: Competitive ABPP in cancer cell lysates: ABHD6 band. The format is biochemical. The settings on record: 10 μM preincubation, A431 and B16-F10 cells. As to the method:
as §3

The target in experiment [13] is T3, human ABHD12 (Homo sapiens, UniProt Q8N2K0).
T3 construct: expressed in transfected cells; host or cells: HEK293T (transient transfection; membrane fraction)
T3 sequence (Q8N2K0 1-398): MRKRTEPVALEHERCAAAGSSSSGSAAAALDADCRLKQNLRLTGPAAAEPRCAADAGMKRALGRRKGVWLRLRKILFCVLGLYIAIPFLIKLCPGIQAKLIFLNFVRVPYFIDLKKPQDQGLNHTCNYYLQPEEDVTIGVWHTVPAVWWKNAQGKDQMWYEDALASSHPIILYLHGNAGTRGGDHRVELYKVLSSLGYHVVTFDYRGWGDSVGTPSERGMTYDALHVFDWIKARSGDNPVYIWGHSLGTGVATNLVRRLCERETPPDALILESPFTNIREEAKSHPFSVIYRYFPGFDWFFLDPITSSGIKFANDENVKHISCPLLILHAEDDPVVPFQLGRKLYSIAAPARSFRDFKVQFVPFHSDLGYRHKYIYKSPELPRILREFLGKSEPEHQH
Description: ABHD12 activity by competitive ABPP with FP-TAMRA. As to conditions: 100 µM compound, competitive ABPP with probe FP-TAMRA (250 nM), read-out: ABHD12 Inhibition (%). The format is biochemical. The essentials:
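Membrane fractions of HEK293T cells transiently overexpressing human ABHD12 (1 mg/ml) preincubated with inhibitor or DMSO for 30 min at room temperature, then labelled with FP-TAMRA (250 nM final) for 20 min. Quenched samples resolved by SDS-PAGE and read by in-gel fluorescence scanning (Cy3 settings).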

For experiment [14], the system named is serine hydrolases labeled by FP-TAMRA in mouse brain membrane proteome. The experiment in a line: Competitive ABPP selectivity assay, mouse brain membrane proteome. It counts as biochemical. As to conditions: 100 µM, FP-TAMRA 250 nM. As to the method: Mouse brains were dounce homogenized lysis buffer (20 mM HEPES, 2 mM DTT, 1 mM MgCl2, 25 U/mL benzonase) and incubated on ice for 15 min, followed by low-speed spin (2,500 g, 3 min, 4 C) to remove debris. The supernatant was subjected to ultracentrifugation (100,000 g, 45 min, 4°C) to generate the cytosolic fraction in the supernatant, as well as the membrane fraction as a pellet. After removal of the soluble supernatant, the pellet was resuspended in storage buffer (20 mM HEPES, 2 mM DTT) by pipetting. Total protein concentrations in membrane and soluble fractions were determined using a Qubit protein assay (Invitrogen). The obtained samples were stored at −80°C until further use.
The competitive ABPP selectivity assay was performed according to the previously reported protocol. Briefly, mouse brain membrane proteome (2 mg/ml, 20 µl) was preincubated for 30 min with 0.5 µl of DMSO (vehicle) or inhibitor (100 μM, finial concentration). […] The reactions were then quenched by 10 µl sample buffer (×4). The obtained samples were directly loaded and resolved on SDS-PAGE gel (10% acrylamide). The gels were then scanned and analyzed using a ChemiDoc MP system (Cy3 settings, BioRad). All the samples were measured and duplicated.

Setting [15] is: 100 µM, AA-HNA substrate assay, Supplementary Table 1, read-out: MAGL Inhibition (%).
Setting [16] is: 100 µM, AA-HNA substrate assay, Supplementary Table 2, read-out: ABHD6 Inhibition (%).

For the molecule `O=C(OC(C(F)(F)F)C(F)(F)F)N1CCC(C(O)(c2ccc3c(c2)OCO3)c2ccc3c(c2)OCO3)CC1` [KML29, reference compound], the IC50 (in general, the concentration at which inhibition is half-maximal) in experiment [1] (30 min preincubation, dose-response curve, read-out: IC50 (MAGL, AA-HNA assay)) was 87 nM. Further, the “effect on fluorescent signal of AA-HNA hydrolysis by MAGL” value in experiment [1] (preincubation with 1 µM) is “significantly reduced the fluorescent signal to the background level; also recorded: reduction of the fluorescent signal”. Moreover, the “Antiproliferation activity (pIC50 ± SEM) A431” value in experiment [2] was less than 5. Besides, the “Antiproliferation activity (pIC50 ± SEM) H1975” value in experiment [3] is recorded as less than 5. Moreover, the “Antiproliferation activity (pIC50 ± SEM) B16-F10” value in experiment [4] was determined as 5.0 ± 0.2. Besides, in [5], the “Antiproliferation activity (pIC50 ± SEM) OVCAR-3” value was less than 5. The “Antiproliferation activity (pIC50 ± SEM) HT-29” value in [6] was determined as 5.0 ± 0.3. The “Antiproliferation activity (pIC50 ± SEM) HCC827” value in [7] is less than 5. Besides, the “Antiproliferation activity (pIC50 ± SEM) Hela” value in [8] is on record as less than 5. Moreover, the “Antiproliferation activity (pIC50 ± SEM) A549” value in [9] is reported as less than 5. Also, the “fluorescent band of MAGL (∼33 kDa) in ABPP gels” value in [10] was “competed away”.

For the molecule `O=C(N1CCCCC1c1ccccc1)n1cc(-c2ccc(-c3cccc(CO)c3)cc2)nn1` (stereo not shown) [KT182, reference compound], in [11] (10 µM), the “effect on fluorescent signal of AA-HNA hydrolysis by ABHD6” value is “reduction of the fluorescent signal”. Besides, the “labeling of ABHD6 (∼32 kDa)” value in [12] is “disappeared”.

As for `Cc1cc2c(C(C)C)c(O)c(O)c(C=O)c2c(O)c1-c1c(C)cc2c(C(C)C)c(O)c(O)c(C=O)c2c1O` [compound 34, Gossypol Acetate], the activity at 100 µM was 35.2% in [1] (setting [15]), 26.3% in [11] (setting [16]) and 43.7% in [13]. Further, the “selectivity profile over serine hydrolases” value (from here on “selectivity profile”) in experiment [14] is “broad-spectrum inhibitors that cross-reacted with multiple serine hydrolases”.

On to `O=C(CCc1ccc(O)cc1)c1c(O)cc(O)cc1O` [compound 66, Dihydronaringenin], for which the activity in experiment [1] (setting [15]) is 41.3%; in experiment [11] (setting [16]), 115%; in [13] it was 119%. Besides, the “selectivity profile” value in experiment [14] is given as “broad-spectrum inhibitors that cross-reacted with multiple serine hydrolases”.

Take `O=c1c(O)c(-c2ccc(O)c(O)c2)oc2cc(O)cc(O)c12` [compound 70, Quercetin]: the activity at 100 µM is 42% in experiment [1] (setting [15]), 48.6% in experiment [11] (setting [16]) and 75.1% in experiment [13]. For the same molecule, the “selectivity profile” value in [14] is reported as “broad-spectrum inhibitors that cross-reacted with multiple serine hydrolases”.

Regarding `C[C@@H]1O[C@@H](OC[C@H]2O[C@@H](Oc3c(-c4ccc(O)c(O)c4)oc4cc(O)cc(O)c4c3=O)[C@H](O)[C@@H](O)[C@@H]2O)[C@H](O)[C@H](O)[C@H]1O` [compound 72, Rutin], the figures for the activity at 100 µM in [1] (setting [15]), in [11] (setting [16]) and in [13] were 75.9%, 119% and 84.3%, respectively.

As to Methyl-Hesperidin [compound 50], the activity was determined as 62.5% in [1] (setting [15]), 94.2% in [11] (setting [16]) and 76.8% in experiment [13].

As for Myricitrin [compound 53], the percent inhibition in experiment [1] (read-out: MAGL Inhibition (%), 100 µM, AA-HNA substrate assay, Supplementary Table 1) was 93.1%; in experiment [13], 70%. In addition, the percent inhibition of ABHD6 in experiment [11] (read-out: ABHD6 Inhibition (%), 100 µM, AA-HNA substrate assay, Supplementary Table 2) is 105%.

Values taken from publication PMC9465256, “Discovering monoacylglycerol lipase inhibitors by a combination of fluorogenic substrate assay and activity-based protein profiling” (Frontiers in Pharmacology, 2022).
